Four compounds from ChEMBL document CHEMBL4673196, “Synthesis and sigma receptor affinity of spiro[[2]benzopyran-1,1-cyclohexanes] with an exocyclic amino moiety in the 3-position” (RSC Med Chem, 2021) can be followed below.

Active and inactive are the calls of the source. The rule behind the calls is not given here.

For orientation: Ki means the dissociation constant of the complex between target and ligand, obtained from inhibition or displacement. Higher therefore signals weaker binding. One may read the inhibition as the percentage by which the read-out fell short of the control. Lower therefore signals little suppression.

Experiment [1] addresses Sigma non-opioid intracellular receptor 1 (Cavia porcellus, UniProt Q60492). The experiment can be described thus: Displacement of [3H]-pentazocine from guinea pig brain sigma 1 receptor incubated for 120 mins by liquid scintillation counting method. It is filed as tissue-based.
Experiment [2] addresses T1, Sigma intracellular receptor 2 (Rattus norvegicus) (UniProt Q5U3Y7).
T1 sequence (whole entry): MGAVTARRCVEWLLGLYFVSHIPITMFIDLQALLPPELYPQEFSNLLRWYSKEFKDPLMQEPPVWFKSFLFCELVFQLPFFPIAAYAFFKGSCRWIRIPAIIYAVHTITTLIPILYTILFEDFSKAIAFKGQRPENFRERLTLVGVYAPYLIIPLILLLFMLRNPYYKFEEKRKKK
The experiment can be described thus: Displacement of [3H]-DTG from Sprague-Dawley rat liver sigma 2 receptor at 1 uM incubated for 120 mins by liquid scintillation counting method relative to control. Format: tissue-based.

In experiment [3] the target is T2, Kappa-type opioid receptor (Homo sapiens, UniProt P41145). The experiment can be described thus: Binding affinity to KOR (unknown origin) at <= 1 uM. To be noted: dose microM <=1.
T2 sequence (P41145 whole entry): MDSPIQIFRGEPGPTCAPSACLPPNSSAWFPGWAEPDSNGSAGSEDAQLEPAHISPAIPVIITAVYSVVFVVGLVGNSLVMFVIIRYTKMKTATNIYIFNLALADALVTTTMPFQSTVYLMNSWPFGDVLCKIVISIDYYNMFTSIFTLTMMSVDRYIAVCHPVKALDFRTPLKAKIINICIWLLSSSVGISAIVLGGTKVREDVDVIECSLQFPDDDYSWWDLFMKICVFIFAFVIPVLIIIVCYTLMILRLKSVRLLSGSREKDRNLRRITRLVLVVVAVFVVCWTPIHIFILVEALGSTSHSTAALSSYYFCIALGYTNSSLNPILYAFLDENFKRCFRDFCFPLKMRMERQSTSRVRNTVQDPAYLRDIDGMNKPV
For experiment [4], the target named is T3, Mu-type opioid receptor (Homo sapiens, UniProt P35372). The experiment can be described thus: Binding affinity to MOR (unknown origin) at <= 1 uM. To be noted: dose microM <=1.
T3 sequence (P35372 whole entry): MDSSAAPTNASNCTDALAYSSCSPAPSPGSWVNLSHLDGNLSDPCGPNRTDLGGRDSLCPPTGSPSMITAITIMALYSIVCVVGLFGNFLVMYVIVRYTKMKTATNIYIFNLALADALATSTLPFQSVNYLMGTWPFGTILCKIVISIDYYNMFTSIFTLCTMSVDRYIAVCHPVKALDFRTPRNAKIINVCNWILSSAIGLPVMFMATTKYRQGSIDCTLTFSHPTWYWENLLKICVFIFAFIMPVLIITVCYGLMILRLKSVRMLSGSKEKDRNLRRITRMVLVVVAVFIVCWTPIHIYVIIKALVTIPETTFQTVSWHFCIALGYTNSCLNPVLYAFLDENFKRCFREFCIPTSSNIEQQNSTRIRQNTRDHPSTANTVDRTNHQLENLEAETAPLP
Experiment [5] has as its target T4, Delta-type opioid receptor (Homo sapiens, UniProt P41143). The experiment can be described thus: Binding affinity to DOR (unknown origin) at <= 1 uM. To be noted: dose microM <=1.
Experiment [6] addresses T4, Delta-type opioid receptor. The experiment can be described thus: Binding affinity to DOR (unknown origin).
The target in experiment [7] is T2, Kappa-type opioid receptor. The experiment can be described thus: Binding affinity to KOR (unknown origin).
Experiment [8] concerns the target T5, Sigma intracellular receptor 2 (Rattus norvegicus, UniProt Q5U3Y7).
T5 sequence (Q5U3Y7 whole entry): T1 sequence (whole entry)
The experiment can be described thus: Displacement of [3H]-DTG from Sprague-Dawley rat liver sigma 2 receptor incubated for 120 mins by liquid scintillation counting method. Format: tissue-based.

Experiment [9] concerns the target T3, Mu-type opioid receptor. The experiment can be described thus: Binding affinity to MOR (unknown origin).

Sequence of Sigma non-opioid intracellular receptor 1 (Q60492 whole entry): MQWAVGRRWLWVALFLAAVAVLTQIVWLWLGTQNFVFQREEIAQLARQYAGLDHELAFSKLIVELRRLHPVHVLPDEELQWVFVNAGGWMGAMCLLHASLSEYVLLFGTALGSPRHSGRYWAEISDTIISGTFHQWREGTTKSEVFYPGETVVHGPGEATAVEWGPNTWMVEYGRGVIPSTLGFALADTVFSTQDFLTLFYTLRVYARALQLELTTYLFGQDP
T4 sequence (P41143 whole entry): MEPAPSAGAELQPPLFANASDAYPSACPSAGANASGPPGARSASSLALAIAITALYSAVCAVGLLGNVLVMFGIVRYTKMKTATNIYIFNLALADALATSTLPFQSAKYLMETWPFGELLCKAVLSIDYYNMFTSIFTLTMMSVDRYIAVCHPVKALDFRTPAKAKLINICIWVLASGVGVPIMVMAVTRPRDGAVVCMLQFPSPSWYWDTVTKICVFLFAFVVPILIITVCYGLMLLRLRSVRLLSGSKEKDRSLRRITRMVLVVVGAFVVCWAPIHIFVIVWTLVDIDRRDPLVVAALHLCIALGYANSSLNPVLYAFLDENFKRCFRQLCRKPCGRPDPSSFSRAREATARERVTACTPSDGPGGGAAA

In the case of `CN(Cc1ccccc1)[C@H]1CCC[C@]2(C1)OCCc1ccccc12` (relative stereo), in experiment [1], affinity was put at a Ki of 278 nM. This compound registered an inhibition in [2] of 24%.

In turn, `CN(CC1CCCCC1)[C@H]1CCC[C@]2(C1)OCCc1ccccc12` (relative stereo) showed an inhibitory constant (Ki) in experiment [1] of 15 nM. For the same compound, the outcome (in [3]; on Mu-type opioid receptor [4]; in experiment [5]) was inactive. This compound returned an inhibition in experiment [2] of 34%.

For the compound `c1ccc2c(c1)CCO[C@@]21CCC[C@H](NCC2CCCCC2)C1` (relative stereo), the Ki in [6] stood at 150 nM; in experiment [1], 5.4 nM; in experiment [7] it was 407 nM; in experiment [8], 60 nM; on Mu-type opioid receptor [9], 696 nM.

On to `c1ccc(CN[C@H]2CCC[C@]3(C2)OCCc2ccccc23)cc1` (relative stereo), for which the Ki was found to be 95 nM in [1] and 340 nM in experiment [8].
